Laboratory results: the supplement of paper PMC10307832

Legend:
Test in all cases: relative viability (nuclei count vs DMSO), 5 days (fraction); higher = more cells survive
UMC-11 = tested on: UMC-11
Method in brief: (§1)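 Values are medians from duplicate plates. Each reflects relative viability, defined as the nuclei count of treated wells over that of vehicle wells. Lung cancer cell lines in 1536-well plates were pin-tool dosed one day after seeding with one drug alone or with a fixed anchor-drug dose plus five library-drug doses (not always all listed) in √10 steps, then fixed, stained and imaged at 4× after 5 days.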

SK-LU-1 = tested on: SK-LU-1
Method in brief: as §1

NCI-H358 = tested on: NCI-H358
Method in brief: as §1

A-427 = tested on: A-427
Method in brief: as §1

LU99A = tested on: LU99A
Method in brief: as §1

NCI-H460 = tested on: NCI-H460
Method in brief: as §1

COR-L 105 = tested on: COR-L 105
Method in brief: as §1

NCI-H1915 = tested on: NCI-H1915
Method in brief: as §1

EPLC-272H = tested on: EPLC-272H
Method in brief: as §1

SW 900 = tested on: SW 900
Method in brief: as §1

HOP-62 = tested on: HOP-62
Method in brief: as §1

NCI-H1666 = tested on: NCI-H1666
Method in brief: as §1

HCC-78 = tested on: HCC-78
Method in brief: as §1

NCI-H1944 = tested on: NCI-H1944
Method in brief: as §1

NCI-H2009 = tested on: NCI-H2009
Method in brief: as §1

HCC-366 = tested on: HCC-366
Method in brief: as §1

LC-2-ad = tested on: LC-2-ad
Method in brief: as §1

LXF-289 = tested on: LXF-289
Method in brief: as §1

NCI-H2085 = tested on: NCI-H2085
Method in brief: as §1

NCI-H1793 = tested on: NCI-H1793
Method in brief: as §1

NCI-H2170 = tested on: NCI-H2170
Method in brief: as §1

NCI-H1792 = tested on: NCI-H1792
Method in brief: as §1

O=c1cc(N2CCOCC2)oc2c(-c3cccc4c3sc3ccccc34)cccc12 + O=C(c1cc(Cc2n[nH]c(=O)c3ccccc23)ccc1F)N1CCN(C(=O)C2CC2)CC1 [Olaparib] (partner 8 µM) showed a relative viability (UMC-11; first compound 0.01 µM) of 0.359, a relative viability (UMC-11; first compound 0.03162 µM) of 0.432 and a relative viability (UMC-11; first compound 0.1 µM) of 0.895. For the same compound, the relative viability (UMC-11; first compound 0.3162 µM) was 0.699, the relative viability (UMC-11; first compound 1 µM) was 0.404 and the relative viability (SK-LU-1; first compound 0.01 µM) was 0.434. For the same compound, the relative viability (SK-LU-1; first compound 0.03162 µM) was 0.447, the relative viability (SK-LU-1; first compound 0.1 µM) was 0.387 and the relative viability (SK-LU-1; first compound 0.3162 µM) was 0.52. It also gave a relative viability (SK-LU-1; first compound 1 µM) of 0.51, a relative viability (NCI-H358; first compound 0.01 µM) of 0.623 and a relative viability (NCI-H358; first compound 0.03162 µM) of 0.634. The relative viability (NCI-H358; first compound 0.1 µM) was 0.721, the relative viability (NCI-H358; first compound 0.3162 µM) was 0.553 and the relative viability (NCI-H358; first compound 1 µM) was 0.669. It also gave a relative viability (A-427; first compound 0.01 µM) of 0.742, a relative viability (A-427; first compound 0.03162 µM) of 0.706 and a relative viability (A-427; first compound 0.1 µM) of 0.737. It also gave a relative viability (A-427; first compound 0.3162 µM) of 0.731, a relative viability (A-427; first compound 1 µM) of 0.733 and a relative viability (LU99A; first compound 0.01 µM) of 0.259. The relative viability (LU99A; first compound 0.03162 µM) was 0.273, the relative viability (LU99A; first compound 0.1 µM) was 0.277 and the relative viability (LU99A; first compound 0.3162 µM) was 0.27. The relative viability (LU99A; first compound 1 µM) was 0.278, the relative viability (NCI-H460; first compound 0.01 µM) was 0.452 and the relative viability (NCI-H460; first compound 0.03162 µM) was 0.37. The relative viability (NCI-H460; first compound 0.1 µM) was 0.452, the relative viability (NCI-H460; first compound 0.3162 µM) was 0.403 and the relative viability (NCI-H460; first compound 1 µM) was 0.406. It also gave a relative viability (COR-L 105; first compound 0.01 µM) of 0.661, a relative viability (COR-L 105; first compound 0.03162 µM) of 0.756 and a relative viability (COR-L 105; first compound 0.1 µM) of 0.687. For the same compound, the relative viability (COR-L 105; first compound 0.3162 µM) was 0.694, the relative viability (COR-L 105; first compound 1 µM) was 0.575 and the relative viability (NCI-H1915; first compound 0.01 µM) was 0.258. It also gave a relative viability (NCI-H1915; first compound 0.03162 µM) of 0.269, a relative viability (NCI-H1915; first compound 0.1 µM) of 0.301 and a relative viability (NCI-H1915; first compound 0.3162 µM) of 0.26. For the same compound, the relative viability (NCI-H1915; first compound 1 µM) was 0.262, the relative viability (EPLC-272H; first compound 0.01 µM) was 0.761 and the relative viability (EPLC-272H; first compound 0.03162 µM) was 0.934. The relative viability (EPLC-272H; first compound 0.1 µM) was 0.848, the relative viability (EPLC-272H; first compound 0.3162 µM) was 0.776 and the relative viability (EPLC-272H; first compound 1 µM) was 0.824. The relative viability (SW 900; first compound 0.03162 µM) was 0.918, the relative viability (SW 900; first compound 0.1 µM) was 0.794 and the relative viability (SW 900; first compound 0.3162 µM) was 0.719. It also gave a relative viability (SW 900; first compound 1 µM) of 0.572, a relative viability (HOP-62; first compound 0.01 µM) of 0.441 and a relative viability (HOP-62; first compound 0.03162 µM) of 0.58. It also gave a relative viability (HOP-62; first compound 0.1 µM) of 0.409, a relative viability (HOP-62; first compound 0.3162 µM) of 0.523 and a relative viability (HOP-62; first compound 1 µM) of 0.377. It also gave a relative viability (NCI-H1666; first compound 0.01 µM) of 0.753, a relative viability (NCI-H1666; first compound 0.03162 µM) of 0.738 and a relative viability (NCI-H1666; first compound 0.1 µM) of 0.777. For the same compound, the relative viability (NCI-H1666; first compound 0.3162 µM) was 0.684, the relative viability (NCI-H1666; first compound 1 µM) was 0.692 and the relative viability (HCC-78; first compound 0.01 µM) was 0.783. For the same compound, the relative viability (HCC-78; first compound 0.03162 µM) was 0.687, the relative viability (HCC-78; first compound 0.1 µM) was 0.644 and the relative viability (HCC-78; first compound 0.3162 µM) was 0.835. The relative viability (HCC-78; first compound 1 µM) was 0.828, the relative viability (NCI-H1944; first compound 0.01 µM) was 0.438 and the relative viability (NCI-H1944; first compound 0.03162 µM) was 0.406. It also gave a relative viability (NCI-H1944; first compound 0.1 µM) of 0.4, a relative viability (NCI-H1944; first compound 0.3162 µM) of 0.384 and a relative viability (NCI-H1944; first compound 1 µM) of 0.393. It also gave a relative viability (NCI-H2009; first compound 0.01 µM) of 0.718, a relative viability (NCI-H2009; first compound 0.03162 µM) of 0.651 and a relative viability (NCI-H2009; first compound 0.1 µM) of 0.592. It also gave a relative viability (NCI-H2009; first compound 0.3162 µM) of 0.652, a relative viability (NCI-H2009; first compound 1 µM) of 0.673 and a relative viability (HCC-366; first compound 0.01 µM) of 0.368. It also gave a relative viability (HCC-366; first compound 0.03162 µM) of 0.319, a relative viability (HCC-366; first compound 0.1 µM) of 0.435 and a relative viability (HCC-366; first compound 0.3162 µM) of 0.346. For the same compound, the relative viability (HCC-366; first compound 1 µM) was 0.386, the relative viability (LC-2-ad; first compound 0.01 µM) was 0.707 and the relative viability (LC-2-ad; first compound 0.03162 µM) was 0.694. For the same compound, the relative viability (LC-2-ad; first compound 0.1 µM) was 0.77, the relative viability (LC-2-ad; first compound 0.3162 µM) was 0.764 and the relative viability (LC-2-ad; first compound 1 µM) was 0.662. The relative viability (LXF-289; first compound 0.01 µM) was 1.01, the relative viability (LXF-289; first compound 0.03162 µM) was 1.08 and the relative viability (LXF-289; first compound 0.1 µM) was 1.08. For the same compound, the relative viability (LXF-289; first compound 0.3162 µM) was 1.03, the relative viability (LXF-289; first compound 1 µM) was 1.11 and the relative viability (NCI-H2085; first compound 0.01 µM) was 0.806. The relative viability (NCI-H2085; first compound 0.03162 µM) was 0.813, the relative viability (NCI-H2085; first compound 0.1 µM) was 0.775 and the relative viability (NCI-H2085; first compound 0.3162 µM) was 0.767. It also gave a relative viability (NCI-H2085; first compound 1 µM) of 0.767, a relative viability (NCI-H1793; first compound 0.01 µM) of 0.77 and a relative viability (NCI-H1793; first compound 0.03162 µM) of 0.857. The relative viability (NCI-H1793; first compound 0.1 µM) was 0.928, the relative viability (NCI-H1793; first compound 0.3162 µM) was 0.657 and the relative viability (NCI-H1793; first compound 1 µM) was 0.738. It also gave a relative viability (NCI-H2170; first compound 0.01 µM) of 0.673, a relative viability (NCI-H2170; first compound 0.03162 µM) of 0.589 and a relative viability (NCI-H2170; first compound 0.1 µM) of 0.526. For the same compound, the relative viability (NCI-H2170; first compound 0.3162 µM) was 0.53, the relative viability (NCI-H2170; first compound 1 µM) was 0.598 and the relative viability (NCI-H1792; first compound 0.01 µM) was 0.445. The relative viability (NCI-H1792; first compound 0.03162 µM) was 0.465, the relative viability (NCI-H1792; first compound 0.3162 µM) was 0.403 and the relative viability (NCI-H1792; first compound 1 µM) was 0.405.
